The record followed here is patent publication US8796289B2 (AbbVie Inc., priority 2011, dated 2014).

pKi: −log10 of the molar value.

This test deals with GST-tagged-Wee1 kinase (Homo sapiens, UniProt P30291). The test can be described thus: Wee1 time-resolved fluorescence equilibrium binding assay (displacement of Oregon Green-labeled ATP-competitive kinase probe). The method, then: Wee1 kinase was assayed using a time-resolved fluorescence equilibrium binding assay monitoring displacement of a rapidly reversible Oregon Green-labeled ATP-competitive kinase probe (N-(2-(2-(2-(4-(4-(5-chloro-4-(2-(1-hydroxycyclobutyl)thiazol-5-yl)-1H-pyrrolo[2,3-b]pyridin-2-yl)phenyl)piperazin-1-yl)ethoxy)ethoxy)ethyl)-2′,7′-difluoro-3′,6′-dihydroxy-3-oxo-3H-spiro[isobenzofuran-1,9′-xanthene]-5-carboxamide) by competitive Wee1 inhibitors.
Sequence of GST-tagged-Wee1 kinase (P30291 whole entry): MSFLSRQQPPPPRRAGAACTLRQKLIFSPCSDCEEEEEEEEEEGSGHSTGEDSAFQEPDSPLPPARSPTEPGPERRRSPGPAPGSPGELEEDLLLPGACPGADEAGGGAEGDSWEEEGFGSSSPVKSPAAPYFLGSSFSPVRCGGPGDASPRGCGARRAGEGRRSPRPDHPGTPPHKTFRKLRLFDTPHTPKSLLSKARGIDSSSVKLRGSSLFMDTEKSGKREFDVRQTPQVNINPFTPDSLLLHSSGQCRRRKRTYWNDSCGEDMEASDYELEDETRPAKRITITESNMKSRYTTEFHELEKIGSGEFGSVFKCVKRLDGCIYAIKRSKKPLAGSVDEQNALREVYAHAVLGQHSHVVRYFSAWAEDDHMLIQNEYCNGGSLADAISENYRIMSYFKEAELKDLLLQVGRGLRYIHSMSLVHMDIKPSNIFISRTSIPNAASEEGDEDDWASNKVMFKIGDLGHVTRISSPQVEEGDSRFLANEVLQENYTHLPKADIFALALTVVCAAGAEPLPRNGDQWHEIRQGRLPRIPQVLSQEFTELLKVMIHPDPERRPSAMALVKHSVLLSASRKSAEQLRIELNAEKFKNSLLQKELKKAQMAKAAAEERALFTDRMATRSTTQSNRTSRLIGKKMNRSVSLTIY
The pKi is the Ki on a negative log10 scale, so that one unit is a factor of ten. `Cc1nn(-c2c(Cl)cccc2Cl)c(=O)c2cnc(Nc3ccc4c(c3)CN(C)C4)nc12` [Example 491, 6-(2,6-dichlorophenyl)-8-methyl-2-[(2-methyl-2,3-dihydro-1H-isoindol-5-yl)amino]pyrimido[4,5-d]pyridazin-5(6H)-one] showed a pKi of 9.59.

Regarding `Cn1cnc(-c2nn(-c3ncccc3Cl)c(=O)c3cnc(Nc4ccc5c(c4)CNCC5)nc23)c1` [Example 353, 6-(3-chloropyridin-2-yl)-8-(1-methyl-1H-imidazol-4-yl)-2-(1,2,3,4-tetrahydroisoquinolin-7-ylamino)pyrimido[4,5-d]pyridazin-5(6H)-one], the pKi is 7.80. Turning to `CN1CCN(c2ccc(Nc3ncc4c(=O)n(-c5c(Cl)cncc5Cl)nc(-c5ccccn5)c4n3)cc2)CC1` [Example 362, 6-(3,5-dichloropyridin-4-yl)-2-{[4-(4-methylpiperazin-1-yl)phenyl]amino}-8-(pyridin-2-yl)pyrimido[4,5-d]pyridazin-5(6H)-one], the pKi was 8.74. As for `Cc1ccccc1-n1nc(-c2ccccc2)c2nc(Nc3ccc(N4CCCC4=O)cc3)ncc2c1=O` [Example 141, 6-(2-methylphenyl)-2-{[4-(2-oxopyrrolidin-1-yl)phenyl]amino}-8-phenylpyrimido[4,5-d]pyridazin-5(6H)-one], the negative logarithm of the Ki (pKi) is 8.15. Molecule `Cn1cnc(-c2nn(-c3c(Cl)cccc3Cl)c(=O)c3cnc(Nc4ccc5c(c4)CNCC5)nc23)c1` [Example 342, 6-(2,6-dichlorophenyl)-8-(1-methyl-1H-imidazol-4-yl)-2-(1,2,3,4-tetrahydroisoquinolin-7-ylamino)pyrimido[4,5-d]pyridazin-5(6H)-one] gave a pKi of 9.00. In turn, `CN1CCN(c2ccc(Nc3ncc4c(=O)n(-c5c(F)cccc5Cl)nc(-c5ccccn5)c4n3)cc2)CC1` [Example 309, 6-(2-chloro-6-fluorophenyl)-2-{[4-(4-methylpiperazin-1-yl)phenyl]amino}-8-(pyridin-2-yl)pyrimido[4,5-d]pyridazin-5(6H)-one] showed a pKi of 6.17.

The molecule `Cc1cc(Nc2ncc3c(=O)n(-c4c(F)cccc4Cl)nc(C)c3n2)ccc1N1CCCN(C)CC1` [Example 368, 6-(2-chloro-6-fluorophenyl)-8-methyl-2-(3-methyl-4-(4-methyl-1,4-diazepan-1-yl)phenylamino)pyrimido[4,5-d]pyridazin-5(6H)-one] gave a pKi of 9.27. For `CN1Cc2cc(Nc3ncc4c(=O)n(-c5c(Cl)cccc5Cl)nc(C(F)F)c4n3)ccc2C2(CC2)C1` [Example 411, 6-(2,6-dichlorophenyl)-8-(difluoromethyl)-2-[(2′-methyl-2′,3′-dihydro-1′H-spiro[cyclopropane-1,4′-isoquinolin]-7′-yl)amino]pyrimido[4,5-d]pyridazin-5(6H)-one], the negative-log Ki (pKi) is 9.00. In turn, `COc1cccc(-c2nn(-c3ccccc3)c(=O)c3cnc(Nc4ccc(N5CCN(C)CC5)cc4)nc23)c1` [Example 58, 8-(3-methoxyphenyl)-2-{[4-(4-methylpiperazin-1-yl)phenyl]amino}-6-phenylpyrimido[4,5-d]pyridazin-5(6H)-one] had a pKi of 8.70. As for `COCn1ccc(-c2nn(-c3c(Cl)cccc3Cl)c(=O)c3cnc(Nc4ccc(N5CCN(C)CC5)cc4)nc23)n1` [Example 268, 6-(2,6-dichlorophenyl)-8-[1-(methoxymethyl)-1H-pyrazol-3-yl]-2-{[4-(4-methylpiperazin-1-yl)phenyl]amino}pyrimido[4,5-d]pyridazin-5(6H)-one], the pKi is 10.00.

Regarding `O=c1c2cnc(Nc3ccc4c(c3)CNCC43CC3)nc2c(C2CC2)nn1-c1c(Cl)cccc1Cl` [Example 391, 8-cyclopropyl-6-(2,6-dichlorophenyl)-2-(2′,3′-dihydro-1′H-spiro[cyclopropane-1,4′-isoquinolin]-7′-ylamino)pyrimido[4,5-d]pyridazin-5(6H)-one], the pKi is 9.03.

On to `Cc1cccc(-c2nn(-c3ccccc3Cl)c(=O)c3cnc(Nc4ccc(N5CCN(C)CC5)cc4)nc23)c1` [Example 51, 6-(2-chlorophenyl)-8-(3-methylphenyl)-2-{[4-(4-methylpiperazin-1-yl)phenyl]amino}pyrimido[4,5-d]pyridazin-5(6H)-one], for which the pKi is 9.40.

In turn, `Cc1nn(-c2ccccc2Cl)c(=O)c2cnc(Nc3ccc4c(c3)CNCC4(C)C)nc12` [Example 482, 6-(2-chlorophenyl)-2-[(4,4-dimethyl-1,2,3,4-tetrahydroisoquinolin-7-yl)amino]-8-methylpyrimido[4,5-d]pyridazin-5(6H)-one] showed a pKi of 9.51. For the molecule `Cc1ccccc1-n1nc(-c2cccs2)c2nc(Nc3ccc(CN(C)C)cc3)ncc2c1=O` [Example 208, 2-({4-[(dimethylamino)methyl]phenyl}amino)-6-(2-methylphenyl)-8-(thiophen-2-yl)pyrimido[4,5-d]pyridazin-5(6H)-one], the pKi was 8.70. Molecule `Cc1cccc(Cl)c1-n1nc(C)c2nc(Nc3ccc(NC4CCN(C)CC4)cc3)ncc2c1=O` [Example 501, 6-(2-chloro-6-methylphenyl)-8-methyl-2-({4-[(1-methylpiperidin-4-yl)amino]phenyl}amino)pyrimido[4,5-d]pyridazin-5(6H)-one] gave a pKi of 9.49. The result for `CN1CCN(c2ccc(Nc3ncc4c(=O)n(-c5ccccc5)nc(-c5ccc(-c6ncccn6)cc5)c4n3)cc2)CC1` [Example 59, 2-{[4-(4-methylpiperazin-1-yl)phenyl]amino}-6-phenyl-8-[4-(pyrimidin-2-yl)phenyl]pyrimido[4,5-d]pyridazin-5(6H)-one] reads 8.52; that for `CN1CCN(c2ccc(Nc3ncc4c(=O)n(-c5c(Cl)cccc5Cl)nc(-c5ccn(CCN6CCCCC6)n5)c4n3)cc2)CC1` [Example 232, 6-(2,6-dichlorophenyl)-2-{[4-(4-methylpiperazin-1-yl)phenyl]amino}-8-{1-[2-(piperidin-1-yl)ethyl]-1H-pyrazol-3-yl}pyrimido[4,5-d]pyridazin-5(6H)-one], 9.70. Turning to `Cc1nn(-c2c(Cl)cccc2Cl)c(=O)c2cnc(Nc3cc4c(cc3F)CNCC4)nc12` [Example 480, 6-(2,6-dichlorophenyl)-2-[(7-fluoro-1,2,3,4-tetrahydroisoquinolin-6-yl)amino]-8-methylpyrimido[4,5-d]pyridazin-5(6H)-one], the pKi was 8.89. `CS(=O)(=O)N1Cc2cc(Nc3ncc4c(=O)n(-c5c(Cl)cccc5Cl)nc(-c5ccccn5)c4n3)ccc2C2(CC2)C1` [Example 377, 6-(2,6-dichlorophenyl)-2-{[2′-(methylsulfonyl)-2′,3′-dihydro-1′H-spiro[cyclopropane-1,4′-isoquinolin]-7′-yl]amino}-8-(pyridin-2-yl)pyrimido[4,5-d]pyridazin-5(6H)-one]: the pKi was 8.89. Regarding `Cc1nn(-c2c(Cl)cccc2Cl)c(=O)c2cnc(Nc3ccc4c(c3)CN(S(C)(=O)=O)CC4(C)C)nc12` [Example 441, 6-(2,6-dichlorophenyl)-2-{[4,4-dimethyl-2-(methylsulfonyl)-1,2,3,4-tetrahydroisoquinolin-7-yl]amino}-8-methylpyrimido[4,5-d]pyridazin-5(6H)-one], the pKi is 9.14. Molecule `Cc1nn(-c2c(F)cccc2Cl)c(=O)c2cnc(Nc3ccc4c(c3)CN(C)CC43CC3)nc12` [Example 313, 6-(2-chloro-6-fluorophenyl)-8-methyl-2-[(2′-methyl-2′,3′-dihydro-1′H-spiro[cyclopropane-1,4′-isoquinolin]-7′-yl)amino]pyrimido[4,5-d]pyridazin-5(6H)-one] showed a negative logarithm of the Ki (pKi) of 8.59. Regarding `Cc1nn(-c2c(F)cccc2Cl)c(=O)c2cnc(Nc3ccc4c(c3)CC(N(C)C)C4)nc12` (stereo not shown) [Example 366, 6-(2-chloro-6-fluorophenyl)-2-{[2-(dimethylamino)-2,3-dihydro-1H-inden-5-yl]amino}-8-methylpyrimido[4,5-d]pyridazin-5(6H)-one], the negative logarithm of the Ki (pKi) is 9.28. Next, `Cc1nn(-c2c(Cl)cccc2Cl)c(=O)c2cnc(Nc3cccc(N4CCN(CCCN(C)C)CC4)c3)nc12` [Example 515, 6-(2,6-dichlorophenyl)-2-[(3-{4-[3-(dimethylamino)propyl]piperazin-1-yl}phenyl)amino]-8-methylpyrimido[4,5-d]pyridazin-5(6H)-one]: 9.72; `CCc1nn(-c2c(Cl)cccc2Cl)c(=O)c2cnc(Nc3ccc4c(c3)CNC(=O)C4)nc12` [Example 464, 6-(2,6-dichlorophenyl)-8-ethyl-2-[(3-oxo-1,2,3,4-tetrahydroisoquinolin-7-yl)amino]pyrimido[4,5-d]pyridazin-5(6H)-one]: 8.80; `Cc1nn(-c2c(Cl)cccc2Cl)c(=O)c2cnc(Nc3ccc4c(c3)CN(C)CC4(C)C)nc12` [Example 364, 6-(2,6-dichlorophenyl)-8-methyl-2-[(2,4,4-trimethyl-1,2,3,4-tetrahydroisoquinolin-7-yl)amino]pyrimido[4,5-d]pyridazin-5(6H)-one]: 9.21. With `CN1CCN(c2ccc(Nc3ncc4c(=O)n(-c5ccccc5C(F)(F)F)nc(-c5ccc(Cl)cc5Cl)c4n3)cc2)CC1` [Example 39, 8-(2,4-dichlorophenyl)-2-{[4-(4-methylpiperazin-1-yl)phenyl]amino}-6-[2-(trifluoromethyl)phenyl]pyrimido[4,5-d]pyridazin-5(6H)-one], the negative-log Ki (pKi) is 6.60. Next, `Cc1nn(-c2c(Cl)cccc2Cl)c(=O)c2cnc(Nc3cccc(C(=O)NC4CCC(N(C)C)CC4)c3)nc12` (stereo not shown) [Example 520, 3-{[6-(2,6-dichlorophenyl)-8-methyl-5-oxo-5,6-dihydropyrimido[4,5-d]pyridazin-2-yl]amino}-N-[4-(dimethylamino)cyclohexyl]benzamide]: 9.35. In turn, `Cc1cc(Nc2ncc3c(=O)n(-c4ccccc4Cl)nc(-c4ccccc4)c3n2)ccc1N1CCN(C(C)C)CC1` [Example 205, 6-(2-chlorophenyl)-2-({3-methyl-4-[4-(propan-2-yl)piperazin-1-yl]phenyl}amino)-8-phenylpyrimido[4,5-d]pyridazin-5(6H)-one] had a pKi of 9.70.
